The text below walks through data of patent US20230133118A1, “COMPOSITIONS AND METHODS FOR TREATING CANCER” (Adagene AG, priority 2020, published 2023).

Data set [1] deals with CD137. As to the kind of experiment: Binding to recombinant CD137 and CD137 on activated T cells. On the set-up: species or system human. The text has this: (§1) This was expected given that CD137 is known to function as a co-stimulatory T cell receptor. […] This property might prevent the potential of dual independent activation of CD137 potentially accounting for its distinct pharmacology and toxicology profile among this class of therapeutic antibodies.

In data set [2] the target is CD137 / CD137 ligand (4-1BBL) (Homo sapiens, UniProt Q07011). As to the kind of experiment: Blocking of CD137 / CD137 ligand interaction. The class given is binding.
From the text: as §1

Data set [3] relates to C1q, human FcγR1. The data set is described as follows: C1q and FcγR1 binding, NK cell ADCC on activated human CD8+ T cells.

Chain of CD137 / CD137 ligand (4-1BBL) (Q07011 24-255): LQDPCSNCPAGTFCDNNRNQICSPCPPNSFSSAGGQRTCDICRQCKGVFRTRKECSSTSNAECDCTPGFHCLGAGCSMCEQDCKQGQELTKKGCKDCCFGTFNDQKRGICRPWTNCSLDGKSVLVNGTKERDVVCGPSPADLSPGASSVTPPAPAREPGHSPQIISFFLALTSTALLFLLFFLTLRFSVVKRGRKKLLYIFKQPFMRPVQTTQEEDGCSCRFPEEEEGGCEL

For the substance “ADG106: fully human agonistic anti-CD137 monoclonal IgG4 antibody; heavy chain SEQ ID NO: 10, light chain SEQ ID NO: 11”, in data set [1], the “affinity to CD137 on activated cynomolgus monkey and human T cells” value is given as “low nanomolar affinity”. Further, the “blocking of the interaction of CD137 to the CD137 ligand (4-1BBL)” value in data set [2] is given as “fully blocks”. For the same substance, in data set [3], the C1q binding entry is “unable to bind C1 q” and the “binding affinity for human FcγR1 protein” value was “low binding affinity”. Besides, in data set [3] (human whole cell assays), the “NK cell antibody-dependent cell-mediated cytotoxicity on activated human CD8+ T cells” value was “did not show detectable”.
